Assay results from patent publication US12637465B2, “Pharmaceutically acceptable salts of sepiapterin” (PTC Therapeutics MP, Inc., priority 2018, dated 2026).

Key:
Format in all cases: physicochemical
[1] = Kinetic solubility in water and Medisca Oral Mix (HPLC solubility, purity and pH of supernatant); conditions: RT; for Purity (area %) of supernatant: for reference only; for Solubility: calculated using freebase, target conc. 7 mg/mL
Description: (§1) The kinetic solubility was evaluated for nicotinate, phosphate, L-tartrate, and fumarate salts and/or co-crystals of sepiapterin in water and […] Oral Mix. X-ray powder diffraction (XRPD) was performed for the residual solids to identify form change/disproportionation. Solids were suspended into the media with target conc. of 7 mg/mL (calculated by freebase).

[2] = Solid form stability study of salts and/or co-crystals at 25° C./60% RH and 40° C./75% RH; conditions: for Underwent a form change during the stability testing: 1 and 2 weeks, 25° C./60% RH and 40° C./75% RH
Description: The stability of the prepared salts and/or co-crystals was analyzed after 1 and 2 weeks at 25° C. and 60% relative humidity and 40° C. and 75% relative humidity. […] None of the phosphate, tartrate, or nicotinate salts and/or co-crystals underwent a form change during the stability testing, and each of them retained greater than 97% purity over the two weeks of the study. In fact, both the tartrate and nicotinate both retained greater than 99% purity.

[3] = Form change/disproportionation of residual solids by XRPD after suspension in water or Medisca Oral Mix; conditions: for Form change (residual solids, XRPD): RT; for Form of the residual solids in Medisca Oral Mix / Form of the residual solids in water: after 1 hour
Description: as §1, with “freebase). […] Oral Mix after 1 hour. […] Oral Mix.” for “freebase).”

[4] = Medisca Oral Mix, 1 hr, listed as nicotinate salt and/or co-crystal
[5] = Medisca Oral Mix, 4 hr, listed as nicotinate salt and/or co-crystal
[6] = Medisca Oral Mix, 24 hr, listed as nicotinate salt and/or co-crystal
[7] = Water, 1 hr, listed as nicotinate salt and/or co-crystal
[8] = Water, 4 hr, listed as nicotinate salt and/or co-crystal
[9] = Water, 24 hr, listed as nicotinate salt and/or co-crystal
[10] = Medisca Oral Mix, 1 hr, listed as phosphate salt and/or co-crystal
[11] = Medisca Oral Mix, 4 hr, listed as phosphate salt and/or co-crystal
[12] = Medisca Oral Mix, 24 hr, listed as phosphate salt and/or co-crystal
[13] = Water, 1 hr, listed as phosphate salt and/or co-crystal
[14] = Water, 4 hr, listed as phosphate salt and/or co-crystal
[15] = Water, 24 hr, listed as phosphate salt and/or co-crystal

Which Observation ([1]; Medisca Oral Mix, 1 hr) does the source give for C[C@H](O)C(=O)C1=Nc2c(nc(N)[nH]c2=O)NC1 [Nicotinate, sepiapterin] here?
The Observation was “Turbid”.

And the “Purity (area %) of supernatant” value [1, 4]?
Its value is 99.76 area %.

What about the pH [1, 4] of the same compound?
Its pH is 3.1.

What about the Observation ([1]; Medisca Oral Mix, 4 hr) of the same compound?
Its Observation is “Turbid”.

What about the “Purity (area %) of supernatant” value [1, 5] of the same compound?
The value was 99.60 area %.

What about the pH [1, 5] of the same compound?
The pH was 3.1.

And the Observation ([1]; Medisca Oral Mix, 24 hr)?
The Observation was “Turbid”.

What about the “Purity (area %) of supernatant” value [1, 6] of the same compound?
Its value is 97.00 area %.

What about the pH [1, 6] of the same compound?
The pH was 3.1.

What about the Observation ([1]; Water, 1 hr) of the same compound?
The Observation was “Turbid”.

What about the “Purity (area %) of supernatant” value [1, 7] of the same compound?
The value was 98.97 area %.

And the pH [1, 7]?
Its pH is 2.1.

And the Observation ([1]; Water, 4 hr)?
The Observation was “Turbid”.

What about the “Purity (area %) of supernatant” value [1, 8] of the same compound?
The value was 99.04 area %.

And the pH [1, 8]?
Its pH is 2.1.

What about the Observation ([1]; Water, 24 hr) of the same compound?
The Observation was “Turbid”.

What about the “Purity (area %) of supernatant” value [1, 9] of the same compound?
Its value is 96.54 area %.

And the pH [1, 9]?
Its pH is 2.1.

What about the “Stability compared with the other salts and/or co-crystals tested” value [2] of the same compound?
Its value is “noticeably more stable than the others”.

And the “Underwent a form change during the stability testing” value [2]?
Its value is “None”.

What about the Form change ([2]; 1 week, 25° C./60% RH) of the same compound?
The Form change was “No”.

And the “Purity (Area %)” value ([2]; 1 week, 25° C./60% RH)?
Its value is 97.43 Area %.

And the “Purity vs. initial (%)” value ([2]; 1 week, 25° C./60% RH)?
The value was 100.3%.

And the Form change ([2]; 1 week, 40° C./75% RH)?
The Form change was “No”.

And the “Purity (Area %)” value ([2]; 1 week, 40° C./75% RH)?
The value was 97.30 Area %.

What about the “Purity vs. initial (%)” value ([2]; 1 week, 40° C./75% RH) of the same compound?
The value was 100.2%.

What about the Form change ([2]; 2 weeks, 25° C./60% RH) of the same compound?
Its Form change is “No”.

And the “Purity (Area %)” value ([2]; 2 weeks, 25° C./60% RH)?
Its value is 97.45 Area %.

What about the “Purity vs. initial (%)” value ([2]; 2 weeks, 25° C./60% RH) of the same compound?
Its value is 100.3%.

And the Form change ([2]; 2 weeks, 40° C./75% RH)?
The Form change was “No”.

And the “Purity (Area %)” value ([2]; 2 weeks, 40° C./75% RH)?
Its value is 97.41 Area %.

What about the “Purity vs. initial (%)” value ([2]; 2 weeks, 40° C./75% RH) of the same compound?
Its value is 100.3%.

And the “Purity (Area %)” value ([2]; Initial)?
Its value is 97.16 Area %.

What about the “Form change (residual solids, XRPD)” value [3, 4] of the same compound?
The value was “Yes”.

What about the “Form change (residual solids, XRPD)” value [3, 5] of the same compound?
The value was “Yes”.

And the “Form change (residual solids, XRPD)” value [3, 6]?
Its value is “Yes”.

And the “Form of the residual solids in Medisca Oral Mix” value ([3]; Medisca Oral Mix)?
The value was “converted to freebase”.

And the “Form change (residual solids, XRPD)” value [3, 7]?
Its value is “Yes”.

And the “Form change (residual solids, XRPD)” value [3, 8]?
The value was “Yes”.

And the “Form change (residual solids, XRPD)” value [3, 9]?
Its value is “Yes”.

What about the “Form of the residual solids in water” value [3] of the same compound?
Its value is “converted to freebase”.

With C[C@H](O)C(=O)C1=Nc2c(nc(N)[nH]c2=O)NC1 [Phosphate, sepiapterin] as the compound, how does the Observation ([1]; Medisca Oral Mix, 1 hr) read?
Its Observation is “Turbid”.

And the “Solubility” value [1, 10]?
Its value is 2500 µg/mL.

What about the “Purity (area %) of supernatant” value [1, 10] of the same compound?
Its value is 99.23 area %.

What about the pH [1, 10] of the same compound?
Its pH is 3.1.

What about the Observation ([1]; Medisca Oral Mix, 4 hr) of the same compound?
The Observation was “Turbid”.

What about the “Solubility” value [1, 11] of the same compound?
Its value is 3200 µg/mL.

What about the “Purity (area %) of supernatant” value [1, 11] of the same compound?
Its value is 98.95 area %.

What about the pH [1, 11] of the same compound?
The pH was 3.1.

And the Observation ([1]; Medisca Oral Mix, 24 hr)?
Its Observation is “Turbid”.

And the “Purity (area %) of supernatant” value [1, 12]?
The value was 87.63 area %.

What about the pH [1, 12] of the same compound?
The pH was 3.1.

And the Observation ([1]; Water, 1 hr)?
Its Observation is “Turbid”.

What about the “Purity (area %) of supernatant” value [1, 13] of the same compound?
The value was 89.92 area %.

What about the pH [1, 13] of the same compound?
Its pH is 2.1.

And the Observation ([1]; Water, 4 hr)?
Its Observation is “Turbid”.

And the “Purity (area %) of supernatant” value [1, 14]?
Its value is 89.52 area %.

And the pH [1, 14]?
Its pH is 2.1.

And the Observation ([1]; Water, 24 hr)?
Its Observation is “Turbid”.

And the “Purity (area %) of supernatant” value [1, 15]?
The value was 82.64 area %.

And the pH [1, 15]?
The pH was 2.1.

And the “Stability compared with the other salts and/or co-crystals tested” value [2]?
Its value is “noticeably more stable than the others”.

What about the “Underwent a form change during the stability testing” value [2] of the same compound?
Its value is “None”.

And the Form change ([2]; 1 week, 25° C./60% RH)?
The Form change was “No”.

And the “Purity (Area %)” value ([2]; 1 week, 25° C./60% RH)?
Its value is 95.35 Area %.

And the “Purity vs. initial (%)” value ([2]; 1 week, 25° C./60% RH)?
The value was 98.6%.

And the Form change ([2]; 1 week, 40° C./75% RH)?
Its Form change is “No”.

What about the “Purity (Area %)” value ([2]; 1 week, 40° C./75% RH) of the same compound?
The value was 95.91 Area %.

And the “Purity vs. initial (%)” value ([2]; 1 week, 40° C./75% RH)?
The value was 99.1%.

What about the Form change ([2]; 2 weeks, 25° C./60% RH) of the same compound?
Its Form change is “No”.

What about the “Purity (Area %)” value ([2]; 2 weeks, 25° C./60% RH) of the same compound?
Its value is 95.87 Area %.

And the “Purity vs. initial (%)” value ([2]; 2 weeks, 25° C./60% RH)?
Its value is 99.1%.

And the Form change ([2]; 2 weeks, 40° C./75% RH)?
Its Form change is “No”.

What about the “Purity (Area %)” value ([2]; 2 weeks, 40° C./75% RH) of the same compound?
The value was 94.50 Area %.

What about the “Purity vs. initial (%)” value ([2]; 2 weeks, 40° C./75% RH) of the same compound?
The value was 97.7%.

And the “Purity (Area %)” value ([2]; Initial)?
Its value is 96.75 Area %.

What about the “Form change (residual solids, XRPD)” value [3, 10] of the same compound?
Its value is “Yes**”.

What about the “Form change (residual solids, XRPD)” value [3, 11] of the same compound?
Its value is “Yes**”.

What about the “Form change (residual solids, XRPD)” value [3, 12] of the same compound?
The value was “Yes**”.

What about the “Form of the residual solids in Medisca Oral Mix” value ([3]; Medisca Oral Mix) of the same compound?
The value was “converted to freebase”.

And the “Form change (residual solids, XRPD)” value [3, 13]?
The value was “Yes”.

And the “Form change (residual solids, XRPD)” value [3, 14]?
The value was “Yes”.

And the “Form change (residual solids, XRPD)” value [3, 15]?
Its value is “Yes”.

And the “Form of the residual solids in water” value [3]?
The value was “converted to freebase”.
